Test results published in ChEMBL document CHEMBL4665638, “Second Generation Inhibitors of HIV-1 Maturation” (ACS Med Chem Lett, 2019).

Legend:
[1] = Binding affinity to wild type HIV-1 NL4-3 CA-SP1 cleavage site of Gag-Pol protein assessed as inhibition of HIV-1 maturation; design: species or system Human immunodeficiency virus 1
[2] = Binding affinity to wild type HIV-1 NL4-3 CA-SP1 cleavage site of Gag-Pol protein assessed as inhibition of HIV-1 maturation in presence of human serum albumin; design: species or system Human immunodeficiency virus 1
[3] = test system: Human immunodeficiency virus 1; assay: Ratio of EC50 for wild type HIV-1 NL4-3 CA-SP1 cleavage site of Gag-Pol protein in presence of human serum albumin to EC50 for wild type HIV-1 NL4-3 CA-SP1 cleavage site of Gag-Pol protein
[4] = Binding affinity to HIV-1 CA-SP1 cleavage site of Gag-Pol protein harboring V370A mutant assessed as inhibition of HIV-1 maturation; design: species or system Human immunodeficiency virus 1
[5] = Binding affinity to HIV-1 CA-SP1 cleavage site of Gag-pol protein harboring deltaV370 mutant assessed as inhibition of HIV-1 maturation; design: species or system Human immunodeficiency virus 1
[6] = Clearance in rat at 5 mg/kg, po or 1 mg/kg, iv; type: ADME, organism-based; details: in vivo
[7] = Binding affinity to HIV-1 CA-SP1 cleavage site of Gag-Pol protein harboring V370M mutant assessed as inhibition of HIV-1 maturation; design: species or system Human immunodeficiency virus 1
[8] = Binding affinity to HIV-1 CA-SP1 cleavage site of Gag-Pol protein harboring deltaV370/Thr371Ala mutant assessed as inhibition of HIV-1 maturation; design: species or system Human immunodeficiency virus 1
[9] = Binding affinity to HIV-1 CA-SP1 cleavage site of Gag-Pol protein harboring […] mutant assessed as inhibition of HIV-1 maturation; design: species or system Human immunodeficiency virus 1
[10] = Aqueous solubility of the compound; type: physicochemical
[11] = Clearance in dog; type: ADME, Canis lupus familiaris; details: in vivo
[12] = Binding affinity to HIV-1 CA-SP1 cleavage site of Gag-Pol protein harboring V362I mutant assessed as inhibition of HIV-1 maturation; design: species or system Human immunodeficiency virus 1
[13] = AUC in rat at 5 mg/kg, po measured for 6 hrs; type: ADME, organism-based; design: time 6 hrs, dose 5 mg/kg; details: in vivo
[14] = Binding affinity to HIV-1 CA-SP1 cleavage site of Gag-Pol protein harboring Thr371Ala mutant assessed as inhibition of HIV-1 maturation; design: species or system Human immunodeficiency virus 1
[15] = Volume of distribution at steady state in dog; type: ADME, Canis lupus familiaris; details: in vivo, read-out: Vdss
[16] = Volume of distribution at steady state in cynomolgus monkey; type: ADME, Macaca fascicularis; details: in vivo, read-out: Vdss
[17] = Oral bioavailability in dog; type: ADME, organism-based, Canis lupus familiaris; details: in vivo
[18] = Oral bioavailability in cynomolgus monkey; type: ADME, organism-based, Macaca fascicularis; details: in vivo
[19] = Binding affinity to HIV-1 CA-SP1 cleavage site of Gag-Pol protein harboring deltaThr371 mutant assessed as inhibition of HIV-1 maturation; design: species or system Human immunodeficiency virus 1
[20] = AUC in rat for 6 hrs; type: ADME; design: time 6 hrs; details: in vivo

Row | Structure (SMILES) | EC50 [1] [nM] | EC50 [2] [nM] | EC50 [4] [nM] | EC50 [5] [nM] | also measured
1 | C=C(C)[C@@H]1CC[C@]2(C(=O)O)CC[C@]3(C)[C@H](CC[C@@H]4[C@@]5(C)CC=C(c6cccc(C(=O)O)c6)C(C)(C)[C@@H]5CC[C@]43C)[C@@H]12 | > 8000 |  |  |  | 
2 | C=C(C)[C@@H]1CC[C@]2(C(=O)O)CC[C@]3(C)[C@H](CC[C@@H]4[C@@]5(C)CC=C(c6ccc(C(=O)O)cc6Cl)C(C)(C)[C@@H]5CC[C@]43C)[C@@H]12 | 114 | 117 | > 4000 |  | Ratio EC50 [3]: 1
3 | C=C(C)[C@@H]1CC[C@]2(C(=O)NCCN(CC)CC(=O)O)CC[C@]3(C)[C@H](CC[C@@H]4[C@@]5(C)CC=C(c6ccc(C(=O)O)cc6)C(C)(C)[C@@H]5CC[C@]43C)[C@@H]12 | 3 |  | 9 | 64 | 
4 | C=C(C)[C@@H]1CC[C@]2(C(=O)O)CC[C@]3(C)[C@H](CC[C@@H]4[C@@]5(C)CC=C(c6ccc(C(=O)O)cc6C)C(C)(C)[C@@H]5CC[C@]43C)[C@@H]12 | 613 | 660 | 3900 |  | Ratio EC50 [3]: 1
5 | C=C(C)[C@@H]1CC[C@]2(CNCCN3CCS(=O)(=O)CC3)CC[C@]3(C)[C@H](CC[C@@H]4[C@@]5(C)CC=C(c6ccc(C(=O)O)cc6)C(C)(C)[C@@H]5CC[C@]43C)[C@@H]12 |  |  |  | 6 | 
6 | C=C(C)[C@@H]1CC[C@]2(C(=O)O)CC[C@]3(C)[C@H](CC[C@@H]4[C@@]5(C)CC[C@H](OC(=O)CC(C)(C)C(=O)O)C(C)(C)[C@@H]5CC[C@]43C)[C@@H]12 [BEVIRIMAT] |  |  |  |  | clearance [6]: 4 mL/min/kg; EC50 [7]: 111 nM; EC50 [8]: > 4000 nM; EC50 [9]: 8 nM; solubility [10]: < 1 µg/mL
7 | C=C(C)[C@@H]1CC[C@]2(NCCN3CCS(=O)(=O)CC3)CC[C@]3(C)[C@H](CC[C@@H]4[C@@]5(C)CC=C(c6ccc(C(=O)O)cc6)C(C)(C)[C@@H]5CC[C@]43C)[C@@H]12 [BMS-955176] |  | 10 | 3 | 13 | clearance [11]: 0.13 mL/min/kg; EC50 [12]: 4 nM; AUC at 6 h [13]: 14.2 µM·h; EC50 [7]: 3 nM; EC50 [14]: 3 nM; EC50 [8]: 7 nM; Vd [15]: 0.43 L/kg; Vd [16]: 0.36 L/kg; bioavailability [17]: 9%; bioavailability [18]: 4%; EC50 [19]: 5 nM; solubility [10]: < 1 µg/mL
8 | C=C(C)[C@@H]1CC[C@]2(C(=O)NCCN(C)C)CC[C@]3(C)[C@H](CC[C@@H]4[C@@]5(C)CC=C(c6ccc(C(=O)O)cc6)C(C)(C)[C@@H]5CC[C@]43C)[C@@H]12 |  |  |  | 31 | 
9 | C=C(C)[C@@H]1CC[C@]2(CN(C)CCCN3CCS(=O)(=O)CC3)CC[C@]3(C)[C@H](CC[C@@H]4[C@@]5(C)CC=C(c6ccc(C(=O)O)cc6)C(C)(C)[C@@H]5CC[C@]43C)[C@@H]12 |  |  |  | 26 | AUC ([13]; 6 h): 4.834 µM·h
10 | C=C(C)[C@@H]1CC[C@]2(C(=O)O)CC[C@]3(C)[C@H](CC[C@@H]4[C@@]5(C)CC=C(c6ccc(C(=O)O)cc6F)C(C)(C)[C@@H]5CC[C@]43C)[C@@H]12 | 55 | 50 | 1400 |  | Ratio EC50 [3]: 1
11 | C=C(C)[C@@H]1CC[C@]2(CNCCCN3CCS(=O)(=O)CC3)CC[C@]3(C)[C@H](CC[C@@H]4[C@@]5(C)CC=C(c6ccc(C(=O)O)cc6)C(C)(C)[C@@H]5CC[C@]43C)[C@@H]12 |  |  |  |  | AUC at 6 h [13]: 1.71 µM·h
12 | C=C(C)[C@@H]1CC[C@]2(C(=O)NCCC(C)C)CC[C@]3(C)[C@H](CC[C@@H]4[C@@]5(C)CC=C(c6ccc(C(=O)O)cc6)C(C)(C)[C@@H]5CC[C@]43C)[C@@H]12 | 47 |  | 101 | 1600 | 
13 | C=C(C)[C@@H]1CC[C@]2(C(=O)O)CC[C@]3(C)[C@H](CC[C@@H]4[C@@]5(C)CC=C(c6ccc(C(=O)O)c(C(=O)O)c6)C(C)(C)[C@@H]5CC[C@]43C)[C@@H]12 | 38 |  | 212 |  | 
14 | C=C(C)[C@@H]1CC[C@]2(CNCCN(C)C)CC[C@]3(C)[C@H](CC[C@@H]4[C@@]5(C)CC=C(c6ccc(C(=O)O)cc6)C(C)(C)[C@@H]5CC[C@]43C)[C@@H]12 |  | 9 |  | 21 | 
15 | C=C(C)[C@@H]1CC[C@]2(NCCN3CCS(=O)(=O)CC3)CC[C@]3(C)[C@H](CC[C@@H]4[C@@]5(C)CC=C(c6ccc(C(=O)O)c(F)c6)C(C)(C)[C@@H]5CC[C@]43C)[C@@H]12 | 3 | 13 |  | 10 | AUC at 6 h [13]: 25.5 µM·h
16 | C=C(C)[C@@H]1CC[C@]2(C(=O)O)CC[C@]3(C)[C@H](CC[C@@H]4[C@@]5(C)CC=C(c6ccc(C(=O)O)cc6)C(C)(C)[C@@H]5CC[C@]43C)[C@@H]12 |  |  |  | > 3000 | clearance [6]: 1 mL/min/kg; AUC at 6 h [20]: 5.72 µM·h
17 | C=C(C)[C@@H]1CC[C@]2(C(=O)NCCNC(C)=O)CC[C@]3(C)[C@H](CC[C@@H]4[C@@]5(C)CC=C(c6ccc(C(=O)O)cc6)C(C)(C)[C@@H]5CC[C@]43C)[C@@H]12 | 5 | 22 | 24 | 361 | 
18 | C=C(C)[C@@H]1CC[C@]2(C(=O)NCCC(=O)O)CC[C@]3(C)[C@H](CC[C@@H]4[C@@]5(C)CC=C(c6ccc(C(=O)O)cc6)C(C)(C)[C@@H]5CC[C@]43C)[C@@H]12 | 37 | 449 | 427 | > 4000 | 
19 | C=C(C)[C@@H]1CC[C@]2(C(=O)NCCN3CCS(=O)(=O)CC3)CC[C@]3(C)[C@H](CC[C@@H]4[C@@]5(C)CC=C(c6ccc(C(=O)O)cc6)C(C)(C)[C@@H]5CC[C@]43C)[C@@H]12 | 2 |  | 6 | 60 | AUC at 6 h [13]: 3.99 µM·h
20 | C=C(C)[C@@H]1CC[C@]2(C(=O)N[C@@H](CN(C)C)C(=O)O)CC[C@]3(C)[C@H](CC[C@@H]4[C@@]5(C)CC=C(c6ccc(C(=O)O)cc6)C(C)(C)[C@@H]5CC[C@]43C)[C@@H]12 | 46 |  | 772 | > 160 | 
